Test results: ChEMBL document CHEMBL1159274, “Spiganthine, the cardioactive principle of Spigelia anthelmia” (J Nat Prod, 1995)

Key:
[1] = (§1) Induction of delay in contraction development in electrically-stimulated guinea pig heart ventricular papillary muscle at contraction frequency of 1 Hz; type: functional, tissue-based; conditions: Cavia porcellus, Muscle tissue
[2] = organism: Cavia porcellus; test: as §1; type: functional, tissue-based; conditions: Muscle tissue

SMILES	EC50 [1] [nM]	Activity [2]	minimal effective concentration ([1]; read-out: MEC) [µM]
CC(C)[C@@]1(O)[C@@H](OC(=O)c2cc[nH]c2)[C@@]2(O)[C@@]3(CO)C[C@]4(O)O[C@@]5([C@H](O)[C@@H](C)CC[C@]35O)[C@@]2(O)[C@]14C [SPIGANTHINE]	60	Dose-dependent effect	–
CC(C)[C@@]1(O)[C@@H](OC(=O)c2cc[nH]c2)[C@@]2(O)[C@]3(C)C[C@@]4(O)O[C@@]5([C@H](O)[C@@H](C)CC[C@]35O)[C@@]2(O)[C@@]41C [RYANODINE]	–	–	0.0165
